Measurements from PMC10017027, “Design and Synthesis of Novel HIV-1 NNRTIs with Bicyclic Cores and with Improved Physicochemical Properties” (Journal of Medicinal Chemistry, 2023).
Converted amounts (≈) assume the structure as drawn. Like-named read-outs stand apart in the source and are kept apart here.

Tests used:
HIV-1 (IIIB strain) = assay: MT-4 antiviral cytopathic effect assay, HIV-1 IIIB; type: cell-based; conditions: for EC50: HIV-1 IIIB, WT, read-out: EC50 MT4
Method: (§1) The prepared compounds were tested for their anti-HIV-1 activity (Table 1). A viral cytopathic effect assay in MT-4 cells with HIV-1 IIIB virus was used to determine compound potency (EC50, 50% cell viability) in protecting virus induced cell killing. Compound cytotoxicity was assessed in MT-4 cells in the absence of virus (CC50, 50% cytotoxicity).
(§2) Compounds were tested in a high-throughput 384-well assay format for their ability to inhibit the virus replication-induced cytopathic effect in MT-4 cell cultures acutely infected with HIV-1 (IIIB strain), HXB2, HXB2-K103N, and HXB2-Y181C. Compounds were serially diluted (1:3) in DMSO on 384-well polypropylene plates and further diluted 200-fold into complete RPMI media (10% FBS, 1% P/S) using Biotek Micro Flow and an Agilent ECHO acoustic dispenser. Each plate contained up to eight test compounds, with negative (no drug control) and 5 μM AZT positive controls. MT-4 cells were further diluted in complete RPMI media and added to each plate using a Micro-Flo dispenser. After five days of incubation in a humidified and temperature-controlled incubator (37 °C), Cell Titer Glo (Promega) was added to the assay plates to quantify the amount of […]. EC50 and CC50 values were defined as the compound concentration that causes a 50% decrease in luminescence signal and were calculated using a sigmoidal dose-response model to generate curve fits.

in vitro = type: cell-based; conditions: human
Method: as §1, with “cytotoxicity). […] ETV contains bromo and amino substitutions on the DAPY core. […] Likely, with the smaller cyano arm I in 1, 3, and 5, the cores could be further elaborated to optimize the compound position in the pocket and to improve potency.” for “cytotoxicity).”
as §2

[1] = Predicted clearance in human liver microsomes; type: in vitro ADME; conditions: pH 7.4, 1 μM compound, read-out: HLM CLint, pred (converted)
Method: Next, microsome stability was profiled in purified human liver microsomes (HLM).
Metabolic stability of compounds was assessed using HLM (Corning cat. 457117).[52] In this assay, 10 nL compounds at a concentration of 1 mM in 100% DMSO are dispensed into 384-well polypropylene plates using the Echo 550 acoustic liquid dispenser (Labcyte). Each plate contains 384 wells with a single test compound in each well.
A solution of HLM at 2 mg/mL in 100 mM K2HPO4/KH2PO4 pH 7.4 with 0.0225 mg/mL Alamethicin from Trichoderma viride (Sigma-Aldrich cat. A4665-10MG) was incubated on ice for 15 min. 5 μL of this solution was added to individual wells following 15 min incubation at room temperature; and supplemented with 5 μL NADPH Regenerating Solution of cofactors (Corning Gentest UGT Reaction Mix solutions A and B, cat. 451200 and 451220) containing 100 mM K2HPO4/KH2PO4 pH 7.4, 2.6 mM NADP^+, 6.6 mM glucose-6-phosphate, 6.6 mM MgCl2, 0.8 U/mL glucose-6-phosphate dehydrogenase, 0.1 mM sodium citrate, and 6.8 mM uridine diphosphate-glucuronic acid. The final concentration of analyte compounds at the beginning of the reactions was 1 μM. The reactions were incubated at 37 °C, and time points of 0, 5, 15, 30, 40, 50, 60, and 70 min were collected for further analysis. Background data were collected using reactions without analyte compounds.
Upon collection of the reaction time points, samples were quenched at the set time points with 30 μL of a solution of 72% acetonitrile, 8% methanol, 0.1% formic acid, 19.9% water, and labetalol as an internal standard (IS) at a concentration of 650 nM. Reaction plates were span in a centrifuge at a speed of 4000 rcf for 30 min and 4 °C, following a dilution of the 10 μL quenched reaction into 40 μL de-ionized water, yielding assay plates.
Samples were analyzed by a solid-phase extraction coupled with a quadrupole time-of-flight mass spectrometer, using an Agilent QToF 6530 RapidFire 360 system with C4 type A solid state cartridges. Analysis was performed in either positive or negative ionization modes. Mobile phases contained 0.1% formic acid in water for loading analytes onto solid state extraction cartridges, and 0.1% formic acid in acetonitrile for elution into the mass spectrometer in positive ionization mode, or 0.1% acetic acid in water for loading and 0.1% acetic acid in acetonitrile for extraction in negative ionization mode. Peak-area ratios of integrated counts for individual compounds to IS were plotted as a semi-logarithmic chart of log versus time. Initial, linear portion of decay was fitted to a linear regression equation to derive the half-time of a compound decay.
Pharmacological parameters for an analyte compound metabolism were calculated using the equations described in Table S2.
Table S2. Pharmacological parameters for an analyte compound metabolism were
calculated using the following equations:
Intrinsic Clearance (in Cl = ln 2
int, in vitro T1/2 ∗ Conc
Intrinsic Clearance Cl = Clint, in vitro ∗ Liver Mass ∗ Yield
Predicted Hepatic Cl = Clint ∗ QH
QH (Hepatic Blood Flow) = 1.3 L/hr/kg

HIV-1 HXB2 K103N variant = assay: MT-4 antiviral cytopathic effect assay, HXB2-K103N; type: cell-based; conditions: for EC50: Human immunodeficiency virus 1, HXB2, read-out: EC50 K103N
Method: as §1, with “cytotoxicity). […] ETV contains bromo and amino substitutions on the DAPY core. […] Likely, with the smaller cyano arm I in 1, 3, and 5, the cores could be further elaborated to optimize the compound position in the pocket and to improve potency.” for “cytotoxicity).”
as §2

HIV-1 HXB2 Y181C variant = assay: MT-4 antiviral cytopathic effect assay, HXB2-Y181C; type: cell-based; conditions: for EC50: Human immunodeficiency virus 1, HXB2, read-out: EC50 Y181C
Method: as §1, with “cytotoxicity). […] ETV contains bromo and amino substitutions on the DAPY core. […] Likely, with the smaller cyano arm I in 1, 3, and 5, the cores could be further elaborated to optimize the compound position in the pocket and to improve potency.” for “cytotoxicity).”
as §2

[2] = Solubility assessment, shake-flask method; type: physicochemical; conditions: for solubility: shake-flask; for HCl sol / PBS sol: supplement CSV
Method: Compound solubility was measured at Analiza (Cleveland, OH) by the standard shake-flask method at pH 1.2 and 7.4 and quantitated by HPLC-UV.

[3] = MDCK permeability assay (A to B); type: in vitro ADME, Canine; conditions: dog, MDCK
Text: Compounds were further tested in a Madin–Darby Canine Kidney (MDCK) assay to evaluate their potential for oral absorption. […] Additionally, there was no trend for better permeability when comparing arm I versus arm II when matched with the same core. The size of the B ring had the greatest influence on Papp with the trend being five-membered > six-membered > seven-membered rings (Table 1).
cMdr1-KO cells were maintained in Dulbecco’s modified Eagle’s medium (DMEM) with sodium pyruvate and GlutaMax, supplemented with 1% Pen/Strep and 10% fetal bovine serum in an incubator set at 37 °C, 90% humidity, and 5% CO2. MDCKII- cMdr1-KO cells were grown to confluence over 3 days on 96-well PET plates with 1 μm pore size, polyester membrane (Corning 3392). Experiments were run using HBSS donor buffer from Invitrogen containing an additional 10 mM HEPES, 15 mM glucose, and 0.1% BSA adjusted to pH 7.4. The receiver well had HBSS buffer supplemented with 1% BSA, 10 mM HEPES, 15 mM glucose, and the pH was adjusted to 7.4. TEER values were read to test membrane integrity at the beginning of the assay. The experiment was started by the addition of dosing solutions containing test compounds. Samples were taken from the donor compartment at 0/120 min and from the receiver compartment at 120 min. Each compound was tested in two separate replicate wells. All samples were immediately collected in a 72:8:20 MeCN/MeOH:H2O mix to precipitate protein and stabilize the test compounds. Cells were dosed on the apical side to determine forward (A to B) permeability. To test for non-specific binding and compound instability, the total amount of drug was quantified at the end of the experiment and compared to the material present in the original dosing solution as a percentage of recovery. Samples were analyzed by RF-QToF.

HIV-1 HXB2 = assay: MT-4 antiviral cytopathic effect assay, HXB2 wild-type virus; type: cell-based; conditions: Human immunodeficiency virus 1, MT4; HIV-1 HXB2 wild-type, MT-4 cells; read-out: EC50 HXB2
Method: as §1, §2

[4] = Human immunodeficiency virus 1, IIIB, MT4, protects 50% of MT-4 cells against HIV-1-induced cell killing
[5] = fold change: ratio of potency against HXB2 K103N and parental HXB2
[6] = supplement CSV, fold change vs HXB2
[7] = fold change: ratio of potency against HXB2 Y181C and parental HXB2
[8] = HCl, pH 1.2, read-out: solubility HCl
[9] = phosphate-buffered saline, pH 7.4, read-out: solubility PBS
[10] = apparent permeability coefficient, A to B, pH 7.4
[11] = preliminary biological data, in words

SMILES | EC50 (HIV-1 (IIIB strain); [4]) | CC50 at 120 h (in vitro) | CLint scaled at 1.167 h, 1 µM [1] | EC50 (HIV-1 HXB2 K103N variant) | K103N (FC) (HIV-1 HXB2 K103N variant; [5]) | K103N (FC) (HIV-1 HXB2 K103N variant; [6]) | EC50 (HIV-1 HXB2 Y181C variant) | Y181C (FC) (HIV-1 HXB2 Y181C variant; [7]) | Y181C (FC) (HIV-1 HXB2 Y181C variant; [6]) | solubility [2, 8] | solubility [2, 9] | HCl sol [2] | PBS sol [2] | Papp A→B at 120 min ([3]; supplement CSV) | Papp A→B at 120 min [3, 10] | EC50 (HIV-1 HXB2) | other results
Cc1cc(CO)cc(C)c1N1CCC(=O)Nc2cnc(Nc3ccc(C#N)cc3)nc21 [Compound 39, 4-({9-[4-(hydroxymethyl)-2,6-dimethylphenyl]-6-oxo-5H,6H,7H,8H,9H-pyrimido[4,5-b][1,4]diazepin-2-yl}amino)benzonitrile] | 198 nM | 15900 nM | – | – | – | – | – | – | – | – | – | – | – | – | – | – | –
Cc1cc(/C=C/C#N)cc(C)c1N1CCC(=O)Nc2cnc(Nc3ccc(C#N)cc3)nc21 [Compound 6, 4-[(9-{4-[(1E)-2-Cyanoeth-1-en-1-yl]-2,6-dimethylphenyl}-6-oxo-5H,6H,7H,8H,9H-pyrimido[4,5-b][1,4]diazepin-2-yl)amino]benzonitrile] | 2.6 to 3 nM | 25800 nM | 12 mL/min/kg | 4.8 nM | 1.7 | 1.7 | 18.3 nM | 6.5 | 6.5 | 63.3 µM (≈ 27.6 µg/mL) | 2.3 µM (≈ 1 µg/mL) | 63.3 µM | 2.3 µM | 3.1 ×10⁻⁶ cm/s | 3.1 ×10⁻⁶ cm/s | 2.8 nM | EC50 (HIV-1 (IIIB strain); protects 50% of MT-4 cells against HIV-1-induced cell killing): 3 nM
Cc1cc(C=O)cc(C)c1N1CC(=O)Nc2cnc(Nc3ccc(C#N)cc3)nc21 [Compound 41, 4-{[8-(4-Formyl-2,6-dimethylphenyl)-6-oxo-5,6,7,8-tetrahydropteridin-2-yl]amino}benzonitrile] | 76.7 nM | 14200 nM | – | – | – | – | – | – | – | – | – | – | – | – | – | – | –
Cc1cc(/C=C/C#N)cc(C)c1-n1c(=O)[nH]c2cnc(Nc3ccc(C#N)cc3)nc21 [Compound 2, 4-[(9-{4-[(1E)-2-Cyanoeth-1-en-1-yl]-2,6-dimethylphenyl}-8-oxo-8,9-dihydro-7H-purin-2-yl)amino]benzonitrile] | 2.5 nM | 23300 nM | 16.7 mL/min/kg | 4.5 nM | 2.0 | 2.0 | 10.6 nM | 4.8 | 4.8 | 61.2 µM (≈ 24.9 µg/mL) | 10.4 µM (≈ 4.24 µg/mL) | 61.2 µM | 10.4 µM | 5.6 ×10⁻⁶ cm/s | 5.6 ×10⁻⁶ cm/s | 2.2 nM | –
Cc1cc(C=O)cc(C)c1-n1c(=O)[nH]c2cnc(Nc3ccc(C#N)cc3)nc21 [Compound 40, 4-{[9-(4-Formyl-2,6-dimethylphenyl)-8-oxo-8,9-dihydro-7H-purin-2-yl]amino}benzonitrile] | 209 nM | – | – | – | – | – | – | – | – | – | – | – | – | – | – | – | CC50 at 5 days (in vitro): > 50000 nM
Cc1cc(CO)cc(C)c1-n1c(=O)[nH]c2cnc(Nc3ccc(C#N)cc3)nc21 [Compound 32, 4-({9-[4-(Hydroxymethyl)-2,6-dimethylphenyl]-8-oxo-8,9-dihydro-7H-purin-2-yl}amino)benzonitrile] | 174 nM | 39700 nM | – | – | – | – | – | – | – | – | – | – | – | – | – | – | –
Cc1cc(C#N)cc(C)c1-n1c(=O)[nH]c2cnc(Nc3ccc(C#N)cc3)nc21 [Compound 1, 4-{2-[(4-Cyanophenyl)amino]-8-oxo-8,9-dihydro-7H-purin-9-yl}-3,5-dimethylbenzonitrile] | 62.3 nM | 43700 nM | 8.83 mL/min/kg | 230 nM | 3.1 | 3.1 | 241 nM | 3.3 | 3.3 | 73.2 µM (≈ 27.9 µg/mL) | 6.6 µM (≈ 2.52 µg/mL) | 73.2 µM | 6.6 µM | 4.9 ×10⁻⁶ cm/s | 4.9 ×10⁻⁶ cm/s | 73.7 nM | –
Cc1cc(CO)cc(C)c1N1CC(=O)Nc2cnc(Nc3ccc(C#N)cc3)nc21 [Compound 28, 4-({8-[4-(hydroxymethyl)-2,6-dimethylphenyl]-6-oxo-5,6,7,8-tetrahydropteridin-2-yl}amino)benzonitrile] | 78.9 nM | 41600 nM | – | – | – | – | – | – | – | – | – | – | – | – | – | – | –
Cc1cc(C=O)cc(C)c1N1CCC(=O)Nc2cnc(Nc3ccc(C#N)cc3)nc21 [Compound 42, 4-{[9-(4-Formyl-2,6-dimethylphenyl)-6-oxo-5H,6H,7H,8H,9H-pyrimido[4,5-b][1,4]diazepin-2-yl]amino}benzonitrile] | 94.3 nM | 5000 nM | – | – | – | – | – | – | – | – | – | – | – | – | – | – | –
Cc1cc(Br)cc(C)c1N1CC(=O)Nc2cnc(Nc3ccc(C#N)cc3)nc21 [Compound 14, 4-{[8-(4-Bromo-2,6-dimethylphenyl)-6-oxo-5,6,7,8-tetrahydropteridin-2-yl]amino}benzonitrile] | – | – | – | – | – | – | – | – | – | – | – | – | – | – | – | – | potency against K103N mutated strain (HIV-1 HXB2 K103N variant; [11]): high potency; activity against the WT virus (HIV-1 (IIIB strain); [11]): low nanomolar activity; potency against Y181C mutated strain (HIV-1 HXB2 Y181C variant; [11]): high potency; aqueous solubility ([2]; preliminary data, in words): significantly improved
